Data from patent US12559450B2, “Lipidoids for nucleic acid transfection and use thereof” (Ustav Organicke Chemie a Biochemie AV CR, v.v.i., priority 2020, dated 2026).

Columns and labels:
U2OS = assay: Cellular toxicity of mRNA-LNP, CellTiterGlo 2.0 viability; format: cell-based, human; settings: total lipid 100 μM (context of the sentence)
Experimental: A human cell line derived from embryonic kidney cells (HEK293), the same line expressing SV40 large T antigen (HEK293T), human osteosarcoma-derived cell line (U2OS), and human hepatocyte carcinoma cell line (HepG2) were cultured in 96-well plates (5×10^4 cells in 100 μl of culture medium per well) in Dulbecco's modified medium (DMEM) or in IMDM medium (Iscove's Modified Dulbecco's medium) supplemented with 10% foetal bovine serum (FBS) at 37° C. in 5% CO2. Cells were transfected with 2 μl of mRNA-LNPs generated in triplicates in Example 25 (the final total concentration of all lipid components in the well was 20 μM) or 10 μl of mRNA-LNPs (the final total concentration of all lipid components in the well was 100 μM) and subsequently incubated for 24 hours. The cytotoxicity of LNPs was analysed in a CellTiterGlo 2.0 cell viability assay (Promega, USA). Cell viability was normalized to non-transfected cells (control).

STING protein = STING protein (Homo sapiens, UniProt Q86WV6, H232R); assay: STING activation reporter assay (ISRE luciferase, HEK293T) with cGAMP-LNPs; settings: read-out: EC50 STING activation; 2′,3′-cGAMP transfected with cGAMP-LNPs
Sequence of STING protein (Q86WV6 whole entry H232R): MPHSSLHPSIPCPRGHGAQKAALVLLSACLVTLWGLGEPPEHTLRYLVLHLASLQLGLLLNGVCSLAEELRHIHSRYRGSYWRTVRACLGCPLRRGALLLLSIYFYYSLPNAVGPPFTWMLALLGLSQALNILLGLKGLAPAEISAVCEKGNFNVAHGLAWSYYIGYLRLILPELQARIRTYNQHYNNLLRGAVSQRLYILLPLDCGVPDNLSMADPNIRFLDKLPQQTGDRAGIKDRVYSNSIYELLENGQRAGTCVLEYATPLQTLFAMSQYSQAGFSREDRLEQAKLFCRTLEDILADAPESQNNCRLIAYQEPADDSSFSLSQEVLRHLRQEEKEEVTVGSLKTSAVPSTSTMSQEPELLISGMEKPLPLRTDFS
Experimental: Cells were transferred to poly-D-lysine (Sigma-Aldrich)-coated 96-well plates (Greiner Bio-One) at a density of 2.5×10^4 in DMEM medium containing glucose (containing L-glutamine; Biowest) supplemented with 10% FBS (Capricorn Scientific) and 1% penicillin-streptomycin (Biowest). After incubation at 37° C. in 5% CO2 overnight, serially diluted compounds were added to the cells for 7 hours. In parallel, HEK293T cells were incubated with the test compounds alone for 30 minutes, washed twice with fresh medium, and then cultured for an additional 6.5 hours. Finally, 50 μl of cell culture medium was mixed with 30 μl of Bright-Glo Luciferase Assay System reagent (Promega) in white 96-well plates and luminescence was read in a Spark® spectrophotometer (TECAN, Grodig).

EC50 (STING protein): 2 ± 0.36 nM
SMILES: CCCCCCCCCCCCN(CCCCCCCCCCCC)CCCCCNC(=O)C12CC3CC(C(=O)NCCCCCN(CCCCCCCCCCCC)CCCCCCCCCCCC)(C1)CC(C(=O)NCCCCCN(CCCCCCCCCCCC)CCCCCCCCCCCC)(C3)C2 [4d]
toxicity of particles formed by the lipidoid (in words) (U2OS): non-toxic
